We go through nine compounds from patent publication EP0498290B1, “Pyridobenzodiazepines, dipyrido [3,2-b:2',3'-e] [1,4]diazepines and their use in the prevention or treatment of HIV infection” (BOEHRINGER INGELHEIM PHARMACEUTICALS INC., priority 1991, dated 1992).

≈ marks a conversion by molar mass, not a printed value. Where two headings read alike, the source gives them in different places.

For data set [1], the target named is T1, HIV-1 RT (Human immunodeficiency virus type 1 group M subtype B, UniProt P03367).
T1 construct: Reverse transcriptase enzyme from the LAV strain of Human Immunodeficiency Virus (HIV-1) (1) was isolated from the bacterial strain JM109; made in house; host or cells: E. coli JM109, clone pBRTprt1+ in vector pIBI21 (lac promoter, IPTG induction)
The experiment in a line: Reverse Transcriptase (RT) Assay: RNA-dependent DNA polymerase activity, poly r(C)/oligo d(G) template, 3H-dGTP. The format is biochemical. The text has this:
Utilizing the Reverse Transcriptase (RT) Assay described below, compounds can be tested for their ability to inhibit the RNA-dependent DNA polymerase activity of HIV-1 RT. Certain specific compounds described in the Examples which appear below, were so tested.
Among the enzymes for which Human Immunodeficiency Virus (HIV-1) encodes is a reverse transcriptase (1), so-named because it transcribes a DNA copy from an RNA template. This activity can be quantitatively measured in a cell-free enzyme assay, which has been previously described (2), and is based upon the observation that reverse transcriptase is able to use a synthetic template [poly r(C) primed with oligo d(G)] to transcribe a radio-labelled, acid-precipitable DNA strand utilizing ^3H-dGTP as a substrate.
Reverse transcriptase enzyme from the LAV strain of Human Immunodeficiency Virus (HIV-1) (1) was isolated from the bacterial strain JM109 (3) expressing the DNA clone pBRTprt1+ (2) which is under the control of the lac promotor in the expression vector pIBI21 (4). An overnight culture grown in 2XYT medium (37°C, 225 rpm) (5) supplemented with 100 µg/ml ampicillin for positive selection is inoculated at a 1:40 dilution into M9 medium supplemented with 10µg/ml thiamine, 0.5% casamino acids, and 50 µg/ml ampicillin (5). The culture is incubated (37°C, 225 rpm) until it reaches an OD540 of 0.3-0.4. At that time the repressor inhibitor IPTG (isopropyl β-D-thiogalactopyranoside) is added to 0.5mM, and the mixture is incubated for 2 additional hours. Bacteria are pelleted, resuspended in a 50mM Tris, 0.6mM EDTA, 0.375M NaCl buffer and digested by the addition of lysozyme (1mg/ml) for 30 minutes on ice. The cells are lysed by the addition of 0.2% NP-40 and brought to 1M NaCl.
After removal of the insoluble debris by centrifugation, the protein is precipitated by the addition of 3 volumes of saturated aqueous ammonium sulfate. The enzyme is pelleted, resuspended in RT buffer (50mM Tris pH 7.5, 1mM EDTA, 5mM DTT, 0.1% NP-40, 0.1M NaCl, and 50% glycerol), and stored at -70°C for further use.
b) Composition of 2X concentrated stock reaction mixture used in testing of compounds 1 to 15
Composition of 2X concentrated stock reaction mixture used in testing compounds 16 and 17
The 2X concentrated stock reaction mixture is aliquoted and stored at - 20°C. The mixture is stable and thawed for use in each assay. This enzyme assay has been adapted to a 96 well microtiter plate system, and has been previously described (6). Tris buffer (50 mM, pH 7.4), vehicle (solvent diluted to match the compound dilution), or compounds in vehicle are dispensed into 96-well microtiter plates (10µl/well; 3 wells/compound). The HIV-1 RT enzyme is thawed, diluted in 50mM Tris pH 7.8 (50mM Tris pH 7.4 in the case of compounds 16 and 17) so that fifteen µl of diluted enzyme contain 0.001 Unit (one unit is that amount of enzyme to transform 1 micromole of substrate per minute at 25°C), and fifteen µl are dispensed per well. Twenty µl of 0.12-0.5M EDTA are added to the first three wells of the microtiter plate. EDTA chelates the Mg^++ present and prevents reverse transcription. This group serves as background polymerization which is subtracted from all other groups. Twenty-five ul of the 2X reaction mixture are added to all wells and the assay is allowed to incubate at room temperature for 60 minutes. The assay is terminated by precipitating the DNA in each well with 50µl of 10% trichloracetic acid (TCA) (10% w/v) in sodium pyrophosphate (1% w/v). The microtiter plate is incubated for 15 minutes at 4°C and the precipitate is fixed onto #30 glass fiber paper (Schleicher & Schuell) using a Skatron semi-automatic harvester. The filters are then washed with additional TCA (5%) containing sodium pyrophosphate (1%), rinsed with aqueous ethanol (70%), dried, and transferred to scintillation vials (6). […]

The test system of data set [2] is HTLV-IIIB strain of HIV-1. The experiment in a line: Human T-Cell Culture Assay (syncytia formation in c8166 cells). The format is cell-based. To be noted: Human immunodeficiency virus 1, IIIB, 96 h, syncytia read four days after virus challenge. The procedure:
In order to confirm that compounds which are active in the RT Assay also have the ability to inhibit HIV replication in a living system, compounds according to the invention were also tested in the human T-Cell Culture Assay described below.
Assay Theory: Formation of syncytia is a feature of in vitro cultures of CD4+ T-cells infected with HIV-1. In this assay, T-cells are treated with a putative replication inhibiting compound and then infected with HIV-1. After incubation, the culture is checked for the formation of syncytia. The absence or reduction in the number of syncytia is used as a measure of the test compound's ability to inhibit HIV replication.
Assay Method: The target cells, designated c8166, are a subclone of human lymphoma cells of T-cell origin and are established at an initial density of 5x10^4 per 100 ul in RPMI 1640 (+ 10% fetal bovine serum) culture medium in 96 well flat bottom plates. A selected amount of test compound, dissolved in DMSO, is included. After 24 hours, 50-100 TCID50's (the dose that results in induced effect in 50% of test cultures) of the HTLV-IIIB strain of HIV-1 (2) are inoculated into each culture. Control cultures receive compound or virus only. Four days after virus challenge, cultures are visually examined for the frequency and distribution of virus-induced giant cell syncytia. The percent inhibition by the test compound is determined by comparison with control values. Confirmation of the presence or absence of virus replication is accomplished by harvesting the cell free culture fluids from all experimental groups to determine the presence or absence of infectious progeny through the induction of syncytia formation in secondary human T-cell cultures after 3 days.

A short description of data set [3]: in vitro. Type of data set: cell-based. The following applies: human, c8166 cells. The procedure: In order to roughly assess the cytotoxicity of the compounds provided by the invention, several such compounds were tested in the MTT Cellular Cytotoxicity Assay described below. Compounds having a relatively high EC50 are preferred.
The MTT [3-(4,5-dimethylthiazol-2-yl)-2,5 diphenyl tetrazolium bromide) assay is based on cleavage of tetrazolium bromide by metabolically active cells, resulting in a highly quantitative blue color. This assay has been previously described (1) but has been optimized for the purposes of the testing reported herein.
The c8166 cell line (2), an established human lymphoma suspension cell line grown in RPMI 1640 supplemented with 10% fetal bovine serum, is used as the target cell line in the assay. Cells (100µl) are plated in microtest plate wells at a concentration of 10^5 cells per ml in the presence of varying concentrations of inhibitor. The cells are incubated at 37°C in a humidified CO2 incubator. Five days later, 20µl of MTT (5mg/ml in RPMI 1640, sonicated, 0.2 micron filtered, and stored at 4°C) is added to each well. After 4 hours additional incubation at 37°C, 60µl of Triton-X is added to each well and thoroughly mixed to aid the solubilization of the crystals. Absolute ethanol (5µl) is added to each well and the resulting mixture is incubated for 30 minutes at 60°C and immediately read on a plate reader (Dynatech) at a wavelength of 570nm. […]

[4] abbreviates: pH 7.4, read-out: RT Assay % inhibition @ 10 µg/ml.
[5] abbreviates: 10 µg/ml, reaction mixture for compounds 1 to 15 (Tris pH 7.8, KCl, human serum albumin, 6µM 3H-dGTP in 2X mix), read-out: RT Assay % inhibition @ 10 µg/ml.

Take `COC1=Nc2ccccc2N(C)c2ncccc21` [Example 17, 5-Methoxy-11-methyl-11H-pyrido[2,3-b][1,5]benzodiazepine]: the inhibition at 10 µg/mL in data set [1] (setting [4]) stood at 82%.
With `CCOC(=O)CSC1=Nc2c(C)ccnc2N(C2CC2)c2ncccc21` [Example 5], the inhibition at 10 µg/mL in data set [1] (setting [5]) amounted to 98%.
Regarding `Cc1ccnc2c1N=C(Cl)c1cccnc1N2C1CC1` [Example 1, 6-Chloro-11-cyclopropyl-4-methyl-11H-dipyrido[3,2-b:2',3'-e][1,4]diazepine], in data set [2], the inhibition at 3 µg/mL is above 90%. The same compound came in with a CC50 at 120 h in data set [3] above 5 µg/mL.
In the case of `CCOC1=Nc2c(C)cccc2Nc2ncccc21` [Example 16, 5-Ethoxy-7-methyl-11H-pyridol[2,3-b][1,5]benzodiazepine], the inhibition at 10 µg/mL in data set [1] (setting [4]) stood at 59%.
As to `Cc1ccnc2c1N=C(S(C)(=O)=O)c1cccnc1N2C1CC1` [Example 14, 11-Cyclopropyl-4-methyl-6-methylsulfonyl-dipyrido[3,2-b:2',3'-e][1,4]diazepine], in data set [1] (setting [5]), the inhibition at 10 µg/mL was 100%.
In the case of `Cc1ccnc2c1N=C(n1ccnc1)c1cccnc1N2C1CC1` [Example 9], the inhibition at 10 µg/mL in data set [1] (setting [5]) was found to be 97%.
In the case of “2.4-Dimethyl-11-ethyl-6-pyrrolidino-11H-dipyrido[3,2-b:2',3'-e][1,4]diazepine [Example 10]”, the “RT Assay % inhibition @ 10 µg/ml” value in data set [1] (10 µg/ml, reaction mixture for compounds 1 to 15 (Tris pH 7.8, KCl, human serum albumin, 6µM 3H-dGTP in 2X mix)) is 91%.
On to `CCN1c2ncccc2C(C#N)=Nc2c(C)cc(C)nc21` [Example 3, 6-Cyano-2,4-dimethyl-11-ethyl-11H-dipyrido[3,2-b:2',3'-e][1,4]diazepine], for which, in data set [2], the inhibition at 3 µg/mL was above 50%.
In data set [2], `Cc1ccnc2c1N=C(C#N)c1cccnc1N2C1CC1` [Example 2, 6-Cyano-11-cyclopropyl-4-methyl-11H-dipyrido[3,2-b:2',3'-e][1,4]diazepine] had an inhibition at 3 µg/mL above 50%. This compound came in with a cytotoxic concentration (CC50) at 120 h in data set [3] of 28 µg/mL (≈ 102 µM).

As a reminder, the CC50 is the concentration at which the toxic effect on the cells reaches its halfway point. The low end stands for greater toxicity to the cells, the high end for lower toxicity to the cells.
